Measured values taken from patent EP3723746B1, “PHENOXY ACIDS FOR THE TREATMENT OF NEUROMUSCULAR DISORDERS” (NMD Pharma A/S, priority 2017, dated 2019).

Experiments:
[1] = tested on: Lewis rats; test: Measurement of in situ muscle contractile characteristics (isometric hindlimb force under cisatracurium block); assay type: in vivo; conditions: 21.5 mg/kg i.v., cisatracurium infusion, 3 experiments
Protocol: Isometric hindlimb force was measured in 12-week old female Lewis rats in the presence and absence of compound.
Rats were placed under anesthesia with isoflurane (2-4%), intubated and subsequently connected to a micro ventilator (Microvent 1, Hallowell EMC, US). Two stimulation electrodes were inserted through the skin to stimulate the sciatic nerve. A small incision was made proximal to the ankle, to expose the Achilles tendon, which was tied by cotton string, and connected to a force transducer (Fort250, World Precision Instruments) with adjustable position (Vernier control). The Achilles tendon was then cut distal to the attached cotton string. The rat was placed on a heated pad, and to prevent movement artefacts from contraction of the ankle dorsiflexors, the foot was fixated by tape on a footplate.
Muscle contractile properties were assessed by applying an electrical current (under supramaximal voltage conditions) to the nerve and recording the force generated by the muscle. The muscle was stretched until maximal force was obtained, when assessed by 2 Hz stimulation. Isometric force was measured every 30 seconds at 12 Hz (Twitch), 10 pulses, and at every 5 minutes at 80 Hz (Tetanic) for 1 second (80 pulses). This stimulation pattern was employed throughout the experiment, expect in few cases where 80 Hz stimulation was replaced by 12 Hz (10 pulses). […] When the level of neuromuscular inhibition was stable, the test article was injected i.v. at the chosen concentration. The effect of test article was assessed on its ability to increase force generated from the stimulation pattern applied. The effect was assessed in the ability to increase force per se (tetanic, 80 Hz, stimulation), and the ratio between individual twitch peaks (12 Hz stimulation). The effect was monitored for at least 1 hour after injection of test article. In addition, the time from injection of test article to maximal effect on force (both twitch and tetanic) was noted and the time for the effect to disappear (return to baseline), if possible. When appropriate the infusion of neuromuscular blocking agent was ceased, with the stimulation pattern continued, and the return of force to control levels was monitored. Animals were sacrificed by cervical dislocation while still fully sedated.

[2] = target: T1, human CIC-1 channels (Homo sapiens, UniProt P35523); test: Automated patch-clamp on the human isoform of CIC-1 expressed in CHO cells; assay type: cell-based; conditions: compound added intracellularly vs control cell patches; positive shift reflects CIC-1 inhibition
T1 construct: host or cells: CHO cells constitutively expressing human ClC-1
Protocol: The investigatory goal of these experiments was to evaluate how compounds affect the open probability and current amplitude of human CIC-1 channels expressed in CHO cells. Experiments were performed using an automated patch clamp system that allowed high throughput testing of whole cell patches together with both intracellular and extracellular addition of compound.
Automated whole cell patch clamp experiments were performed with the Qpatch 16 system (Sophion Bioscience, Ballerup, Denmark) at room temperature. Data acquisition and analysis were performed in the Qassay software (ver. 5.6, Odense).
To evoke CIC-1 currents in whole cell patches, the membrane potential was initially stepped from a holding potential of -30 mV to +60 mV for 100 ms and then to various test voltages (sweeps) ranging from +120 mV to -140 mV in steps of 20 mV for 300 ms. To obtain tail currents, the membrane potential was stepped to -100 mV after each test voltage for 300 ms and then relaxed to -30 mV for 2 sec between sweeps (Figure 3). I/V relationships for whole cell instant and steady state current amplitudes were obtained by plotting average current densities at the beginning and at the end of the 300 ms step against the membrane potential (Figure 4).
In order to determine the relative overall open probability (P0), the instantaneous tail currents were normalized to the maximal tail current obtained following the most positive voltage step and plotted against the test voltage. Plots of normalized tail currents from each whole cell patch were then fitted to a Boltzmann function allowing determination of half activation voltages (V1/2, Figure 5).
For automated patch clamp experiments extracellular solutions contained: 2 mM CaCl2, 1 mM MgCl2, 10 mM HEPES, 4 mM KCI, 145 mM NaCl, 10 mM Glucose, pH adjusted to 7.4 with NaOH (2 M). Osmolality adjusted to ~320 using sucrose.
Intracellular solutions contained: 80 mM CsF, 60 mM CsCI, 5/1 mM KOH/EGTA, 10 mM HEPES, 10 mM NaCl, pH adjusted to 7.2 with NaOH (2 M). Osmolality adjusted to ~320 mOsm using sucrose.
Cells used in patch clamp experiments were Chinese hamster ovary cells (CHO) constitutively expressing human CIC-1 channels. The amino acid sequence encoded by the cDNA used to create this cell line was identical to the translated sequence for GenBank accession number NM_000083.2. Cells were produced by Charles River (Catalogue CT6175, Cleveland OH, USA) in a cryopreserved format. Experiments were performed on the cells directly after thawing (3 × 10^6 cells used in each experiment).
To evaluate the compound effect on CIC-1, when applied directly to the intracellular side of the cell membrane, the half activation voltage, V1/2, was determined from whole cell patches with compound added to the intracellular solution and then compared to V1/2 determined from control cell patches with only vehicle added to the intracellular solution. Additionally, the effect of extracellular added compound was evaluated by determine V1/2 and steady state current amplitudes before and after exchanging the extracellular solution to contain compound.
The difference in half activation voltage of CIC-1 channels, ΔV1/2, was determined as the difference between the cell patches treated intracellularly with compound and control cells patches and is reported in Table 4 below. A positive shift in ΔV1/2 is reflecting CIC-1 channel inhibition by the tested compound. P-values of <0.05 is considered significant. […]

[3] = tested on: soleus muscles; test: Measurement of force in an in vitro model: recovery of contractile force of isolated rat soleus nerve-muscle preparation after tubocurarine; conditions: Rattus norvegicus, 40 min; 50 µM test compound, after 90 mins 115 nM tubocurarine; percentage of the initial force restored after 40 mins of compound exposure; read-out: Point increase
Protocol: Recovery of force is quantified as the percentage of the force prior to tubocurarine that is recovered by the compound.
The current invention relates to compounds that inhibit CIC-1 ion channels and increase muscle excitability and thereby improve muscle function in clinical conditions where muscle activation is failing. Such conditions result in loss of contractile function of skeletal muscle, weakness and excessive fatigue. In this series of experiments the compounds were tested for their ability to restore contractile function of isolated rat muscle when the neuromuscular transmission had been compromised akin to neuromuscular disorders.
Experimentally, soleus muscles from 4-5 week old rats were isolated with the motor nerve remaining attached. The nerve-muscle preparations were mounted in experimental setups that enabled electrical stimulation of the motor nerve. Stimulation of the motor nerve led to activation of the muscle fibres and ensuing force production that was recorded.
After mounting the nerve-muscle preparation in the experimental setup, the contractile function of the muscle was initially assessed under the control conditions (Figure 2A). […] The experimental condition mimics the failing neuromuscular transmission in a range of neuromuscular disorders. After addition of tubocurarine the contractile force declined over the next 90 mins to 10-50 % of the control force. 50 µM of the test compound was then added and the contractile force recovered despite the continued presence of tubocurarine. To quantify the ability of the compound to restore force the percentage of the initial force that was restored was determined after 40 mins of compound exposure (Figure 2B) and the point increase is reported in Table 3. Table 3: Percentage increase of initial force that was restored

[4] = target: T2, CIC-1 channels (Rattus norvegicus, UniProt P35524); test: Electrophysiological measurement of compound inhibition of CIC-1 in rat muscle (Gm, three micro-electrode technique, soleus muscle fibres); assay type: cell-based; conditions: reduction of Gm in rat soleus muscle fibres, approx. 30°C; mean ± spread, n = number of experiments
T2 construct: from tissue; host or cells: whole soleus muscle of 12-14 week old Wistar rats
T2 sequence (P35524 1-994): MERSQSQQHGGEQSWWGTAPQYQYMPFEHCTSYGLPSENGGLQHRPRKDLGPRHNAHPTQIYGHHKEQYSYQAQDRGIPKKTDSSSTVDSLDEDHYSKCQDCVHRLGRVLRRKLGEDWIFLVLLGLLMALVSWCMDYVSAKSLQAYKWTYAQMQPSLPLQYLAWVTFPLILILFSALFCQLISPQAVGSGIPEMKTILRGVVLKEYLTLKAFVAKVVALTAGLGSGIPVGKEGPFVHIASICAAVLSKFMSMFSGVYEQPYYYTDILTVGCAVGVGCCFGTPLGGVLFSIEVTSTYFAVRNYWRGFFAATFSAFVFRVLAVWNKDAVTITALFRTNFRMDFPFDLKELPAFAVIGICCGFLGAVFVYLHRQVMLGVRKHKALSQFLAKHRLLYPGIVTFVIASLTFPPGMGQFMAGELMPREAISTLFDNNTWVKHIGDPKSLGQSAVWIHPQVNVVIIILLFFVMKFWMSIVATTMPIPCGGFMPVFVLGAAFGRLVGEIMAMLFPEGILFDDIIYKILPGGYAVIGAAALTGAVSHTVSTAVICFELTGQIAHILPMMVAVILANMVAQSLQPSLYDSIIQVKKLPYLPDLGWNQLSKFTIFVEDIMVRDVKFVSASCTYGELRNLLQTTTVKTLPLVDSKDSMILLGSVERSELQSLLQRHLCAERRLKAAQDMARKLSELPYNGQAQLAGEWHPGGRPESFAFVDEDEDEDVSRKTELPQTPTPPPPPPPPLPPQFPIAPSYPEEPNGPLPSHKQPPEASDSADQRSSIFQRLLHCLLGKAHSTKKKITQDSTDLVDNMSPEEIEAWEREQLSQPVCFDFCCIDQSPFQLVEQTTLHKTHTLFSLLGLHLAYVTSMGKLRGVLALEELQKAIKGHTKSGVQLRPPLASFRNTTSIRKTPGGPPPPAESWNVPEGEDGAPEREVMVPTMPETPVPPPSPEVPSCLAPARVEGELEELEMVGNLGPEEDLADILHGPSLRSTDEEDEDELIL
Excerpt: Table 2: Inhibition of CIC-1 ion channel using compounds of the invention

T1 sequence (P35523 whole entry, canonical isoform): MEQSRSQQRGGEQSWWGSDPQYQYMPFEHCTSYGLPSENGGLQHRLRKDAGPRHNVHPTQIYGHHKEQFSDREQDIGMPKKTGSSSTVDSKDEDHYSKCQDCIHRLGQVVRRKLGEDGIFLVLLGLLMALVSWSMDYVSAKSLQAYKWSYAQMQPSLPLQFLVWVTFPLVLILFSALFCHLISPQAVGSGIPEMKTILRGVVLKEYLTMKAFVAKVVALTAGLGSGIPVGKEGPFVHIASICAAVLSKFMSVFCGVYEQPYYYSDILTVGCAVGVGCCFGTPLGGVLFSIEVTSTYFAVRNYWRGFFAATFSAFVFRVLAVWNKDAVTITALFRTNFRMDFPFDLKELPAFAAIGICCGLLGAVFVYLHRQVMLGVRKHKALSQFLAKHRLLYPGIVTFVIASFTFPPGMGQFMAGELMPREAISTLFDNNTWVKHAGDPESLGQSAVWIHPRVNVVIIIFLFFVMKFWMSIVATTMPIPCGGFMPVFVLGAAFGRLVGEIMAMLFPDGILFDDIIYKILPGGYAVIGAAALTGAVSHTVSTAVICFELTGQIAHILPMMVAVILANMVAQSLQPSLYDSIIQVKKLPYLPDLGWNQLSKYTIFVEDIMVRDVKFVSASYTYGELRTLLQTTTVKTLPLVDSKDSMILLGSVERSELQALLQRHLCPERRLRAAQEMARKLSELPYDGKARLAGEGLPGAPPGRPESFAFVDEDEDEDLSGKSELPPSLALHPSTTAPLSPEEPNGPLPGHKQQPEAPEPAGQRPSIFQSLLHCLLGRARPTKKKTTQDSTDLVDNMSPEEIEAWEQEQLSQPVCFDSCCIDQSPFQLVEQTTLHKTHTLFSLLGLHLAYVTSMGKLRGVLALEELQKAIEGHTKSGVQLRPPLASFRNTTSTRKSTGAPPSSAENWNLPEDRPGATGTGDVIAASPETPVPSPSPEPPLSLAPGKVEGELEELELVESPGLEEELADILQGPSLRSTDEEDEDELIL

Row | Compound | ΔV1/2 [2] | EC50 [4] | activation at 50 µM [3] | also measured
1 | C[C@H](Oc1ccc(Cl)cc1C1CC1)C(=O)O [Compound A-4, (2S)-2-(4-chloro-2-cyclopropylphenoxy)propanoic acid] | 8.8 mV |  |  | 
2 | C[C@H](Oc1ccc(Br)cc1C1CCC1)C(=O)O [Compound A-14, (2S)-2-(4-bromo-2-cyclobutylphenoxy)propanoic acid] |  | 4.3 ± 2.3 µM | 17% | 
3 | [2H]C([2H])(C)C(=O)c1cc(Cl)ccc1O[C@@H](C)C(=O)O [Compound A-27, (2S)-2-{4-chloro-2-[(2,2-^2H2)propanoyl]phenoxy}propanoic acid] |  | 8.3 µM | 36% | 
4 | CCC(=O)c1cc(Cl)ccc1O[C@@H](C)C(=O)O [Compound A-30, (2S)-2-(4-chloro-2-propanoylphenoxy)propanoic acid] | 6.2 mV |  |  | 
5 | C[C@H](Oc1ccc(Br)cc1C=C(F)F)C(=O)O [Compound A-36, (2S)-2-[4-bromo-2-(2,2-difluoroethenyl)phenoxy]propanoic acid] | 21.5 mV | 3.7 µM | 16% | 
6 | C[C@H](Oc1cc(F)c(Br)cc1C1CC1)C(=O)O [Compound A-44, (2S)-2-(4-bromo-2-cyclopropyl-5-fluorophenoxy)propanoic acid] |  |  | 12% | 
7 | C#Cc1cc(Br)c(F)cc1O[C@@H](C)C(=O)O [Compound A-47, (2S)-2-(4-bromo-2-ethynyl-5-fluorophenoxy)propanoic acid] |  |  | 15% | 
8 | C#Cc1cc(Cl)c(F)cc1O[C@@H](C)C(=O)O [Compound A-48, (2S)-2-(4-chloro-2-ethynyl-5-fluorophenoxy)propanoic acid] |  |  | 14% | 
9 | O=C(O)COc1ccc(Br)cc1C1CC1 [Compound A-55, 2-(4-bromo-2-cyclopropylphenoxy)acetic acid] |  | 6.4 µM | 25% | 
10 | C#Cc1cc(Br)ccc1OCC(=O)O [Compound A-56, 2-(4-bromo-2-ethynylphenoxy)acetic acid] |  |  | 14% | 

Continued, in another order:

Row | ΔV1/2 [2] | EC50 [4] | Compound | activation at 50 µM [3] | also measured
11 | 9.2 mV |  | C[C@H](Oc1ccc(Br)cc1C1CC1)C(=O)O [Compound A-2, (2S)-2-(4-bromo-2-cyclopropylphenoxy)propanoic acid] |  | change in twitch peaks ([1]; 12 Hz stimulation): no significant change; average increase in tetanic force ([1]; 80 Hz stimulation): 28.5%
12 | 10.3 mV | 4.2 ± 0.7 µM | C=Cc1cc(Br)ccc1O[C@@H](C)C(=O)O [Compound A-17, (2S)-2-(4-bromo-2-ethenylphenoxy)propanoic acid] | 21% | 
13 | 26.4 mV |  | C#Cc1cc(Cl)ccc1O[C@@H](C)C(=O)O [Compound A-20, (2S)-2-(4-chloro-2-ethynylphenoxy)propanoic acid] |  | 
14 |  | 6.1 µM | C#Cc1cc(Br)ccc1O[C@H](C(=O)O)C1CCC1 [Compound A-46, (2S)-2-(4-bromo-2-ethynylphenoxy)-2-cyclobutylacetic acid] |  | 
15 |  | 4 ± 3 µM | C=Cc1cc(Br)ccc1O[C@@H](CCF)C(=O)O [Compound A-51, (2S)-2-(4-bromo-2-ethenylphenoxy)-4-fluorobutanoic acid] | 27% | 
16 |  | 3 µM | C[C@H](Oc1ccc(Br)cc1/C=C/F)C(=O)O [Compound A-52, (2S)-2-{4-bromo-2-[(1E)-2-fluoroethenyl]phenoxy}propanoic acid] |  | 
17 |  | 7.2 ± 3.5 µM | C#Cc1cc(Br)ccc1O[C@@H](CC)C(=O)O [Compound A-54, (2S)-2-(4-bromo-2-ethynylphenoxy)butanoic acid] | 18% | 
